Experimental data taken from PMC554093, “L-histidine inhibits production of lysophosphatidic acid by the tumor-associated cytokine, autotaxin” (Lipids in Health and Disease, 2005).
Blank lines part the entries; values can stand above or below the molecule they belong to.

Experiments:
Format in all cases: biochemical
[1] = biological target: T1, autotaxin (ATX, NPP-2, lysophospholipase D) (Homo sapiens, UniProt Q13822); assay: LPLD activity (choline release from LPC), […] compound, about […] reduction; parameters: gene ENPP2; recombinant human ATX (vATX); conditions: read-out: % reduction at 15 mM
[2] = biological target: T1, autotaxin (ATX, NPP-2, lysophospholipase D); assay: LPLD activity (choline release from LPC) and PDE activity (pNp-TMP) with purified recombinant ATX; parameters: gene ENPP2; recombinant human ATX (vATX), cloned from an MDA-MB-435 cell library
[3] = biological target: T1, autotaxin (ATX, NPP-2, lysophospholipase D); assay: LPLD activity (choline release from LPC), […] compound, […] reduction; methyl on the alpha nitrogen; parameters: gene ENPP2; recombinant human ATX (vATX); conditions: read-out: % reduction at 15 mM
[4] = biological target: T1, autotaxin (ATX, NPP-2, lysophospholipase D); assay: LPLD activity (choline release from LPC), […] compound, about […] reduction; parameters: gene ENPP2; recombinant human ATX (vATX); conditions: read-out: % reduction at 15 mM; remark: listed apart in the source
[5] = biological target: T1, autotaxin (ATX, NPP-2, lysophospholipase D); assay: LPLD activity (choline release from LPC), […] compound, […] reduction; parameters: gene ENPP2; recombinant human ATX (vATX); conditions: read-out: % reduction at 15 mM
[6] = biological target: T1, autotaxin (ATX, NPP-2, lysophospholipase D); assay: LPLD enzyme kinetics (choline release), Km; parameters: gene ENPP2; recombinant human ATX (vATX)

Molecule: N[C@H](Cc1c[nH]cn1)C(=O)O [D-histidine]
- inhibition at 15000 µM [1]: ~75%

Molecule: N[C@@H](Cc1c[nH]cn1)C(=O)O [L-histidine]
- IC50 [2]: 4 ± 1.1 mM

Molecule: CN[C@@H](Cc1c[nH]cn1)C(=O)O [N-methyl histidine]
- inhibition at 15000 µM [3]: 30%

Molecule: LPC (18:1)
- Km [6]: 490 ± 50 µM

Second part, the molecule after the results:

- inhibition at 15000 µM [4]: ~20%
Molecule: NC(=O)[C@@H](N)Cc1c[nH]cn1 [histidinamide]

- inhibition at 15000 µM [5]: 65%
Molecule: COC(=O)[C@@H](N)Cc1c[nH]cn1 [histidine methyl ester]
